Experimental data as given in patent US20190308956A1, “PIPERAZINE DERIVATIVES AS ANTIVIRAL AGENTS WITH INCREASED THERAPEUTIC ACTIVITY” (SERVICIO ANDALUZ DE SALUD, priority 2016, published 2019).
Like-named read-outs stand apart in the source and are kept apart here.

Assays:
wild-type HAdV5 = assay: Virus yield reduction (burst assay, TCID50), HAdV5; format: cell-based; settings: for Virus yield reduction HAdV5: 50 μM, A549 cells, 48 h, yield with DMSO divided by yield with compound
Description: (§1) 1.8. Virus yield reduction. The effect of the active compounds on virus production was evaluated in a burst assay A549 cells were infected with wild-type HAdV5 or HAdV16 (MOI 100) in the presence or absence of 50 μM compounds. After 48 h, cells were harvested and subjected to three rounds of freeze/thaw. Serial dilutions of clarified lysates were titrated on A549 cells and TCID50 values were calculated using an endpoint dilution method.46

HAdV16-GFP = assay: Plaque assay, HAdV16-GFP in 293β5 cells; format: cell-based; settings: for Selectivity Index (SI) HAdV16: ratio CC50 to IC50, HAdV16
Description: 1.5. Plaque assay. For low MOI infections, active compounds were further evaluated in a plaque assay. 293β5 cells were seeded in 6-well plates at 4×10^5 cells per well in duplicate for each condition. When cells reached 80-90% confluency, they were infected with HAdV5-GFP or HAdV16-GFP (0.06 vp/cell) and rocked for 2 h at 37° C. The inoculum was removed and the cells were washed once with PBS. The cells were then carefully overlaid with 4 ml/well of equal parts of 1.6% […] Difco Agar Noble (Becton, Dickinson & Co, Sparks, MD) and 2× EMEM (BioWhittaker) supplemented with 2x penicillin/streptomycin, 2× L-glutamine and 10% FBS. The mixture also contained compound in concentrations ranging from 5 to 1 μM. Following incubation for 7 days at 37° C., plates were scanned with a Typhoon 9410 imager (GE Healthcare Life Sciences), and plaques were quantified with ImageJ.43

HCMV (AD169) = assay: HCMV infectivity assay by quantitative PCR; format: cell-based, human cytomegalovirus; settings: Human betaherpesvirus 5, AD169, MRC5, MRC-5 cells, 72 h, qPCR, read-out: Inhibition of HCMV DNA replication
Description: 1.9. HCMV infectivity assay by quantitative PCR. […] After 72 h of incubation at 37° C., DNA was purified from the cell lysate with the QlAamp DNA Mini Kit (QIAGEN, Valencia, Calif.) following the manufacturer's instructions. TaqMan primers and probes for a region of the US28 gene were designed with the GenScript Real-time PCR (TaqMan) Primer Design software (GenScript). Oligonucleotides sequences were CMV-F: 5′-[…]-3′; CMV-R: 5′-[…]-3′; and CMV-Probe: 5′-[…]-3′. Real-time PCR mixtures consisted of 10 μl the purified DNA, CMV-F at a concentration of 100 nM, CMV-R at a concentration of 300 nM, and CMV-Probe at a concentration of 50 nM in a total volume of 12.5 μl and mixed with 12.5 μl of KAPA PROBE FAST qPCR Master Mix (KAPABiosystems, MA). The PCR cycling protocol was 95° C. for 10 min followed by 40 cycles of 95° C. for 30 sec and 58° C. for 60 sec. Human glyceraldehyde-3-phosphate dehydrogenase (GAPDH) was used as internal control. Oligonucleotides sequences for GAPDH and conditions were those previously reported by Rivera et al.44 For quantification, gene fragment from US28 and GAPDH were cloned into the pGEM-T Easy vector (Promega) and known concentrations of template were used to generate a standard curve in parallel for each experiment. All assays were performed in a C1000 Thermal Cycler apparatus (BioRad).

HAdV5-GFP [1] = assay: Plaque assay, HAdV5-GFP in 293β5 cells; format: cell-based; settings: for Selectivity Index (SI) HAdV5: ratio CC50 to IC50, HAdV5; for inhibition at 10 µM: read-out: Percentage of plaque formation inhibition, HAdV5-GFP, 10 μM, 293β5 cell line
Summary of the method: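 293β5 cells infected with HAdV5-GFP at 0.06 vp/cell for 2 h at 37° C. Then overlaid with agar/EMEM containing compound (5 to 1 μM stated range; screen run at 10 μM). After 7 days at 37° C., GFP plaques imaged and counted relative to DMSO control.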

A549 cells = assay: Cytotoxicity assay (alamarBlue cell viability); format: cell-based, Human
Description: (§2) 1.4. Cytotoxicity assay. The cytotoxicity of the compounds was measured using the AlarmBlue cell viability assay (Invitrogen) according to the manufacturer's instructions. Actively dividing A549 cells were incubated with compounds for 48 h. After the incubation the alamarBlue reagent was added to the cells ( 1/10th alamarBlue reagent in culture medium) for an extra 4 h. The 50% cell cytotoxic concentration (CC50) of the molecules was calculated according to Cheng et al.42 The selectivity index (SI) was evaluated as the ratio of CC50 to IC50, where the IC50 is defined as the concentration of compound that inhibits HAdV infection by 50%.

[2] = Cytotoxicity assay (alamarBlue cell viability); format: cell-based, Human; settings: human, A549 cells, 48 h
Description: as §2

wild-type HAdV16 = assay: Virus yield reduction (burst assay, TCID50), HAdV16; format: cell-based; settings: 50 μM, A549 cells, 48 h, yield with DMSO divided by yield with compound
Description: as §1

HAdV5-GFP [3] = assay: Entry assay, HAdV5-GFP in A549 cells (GFP expression); format: cell-based
Description: 1.3. Entry assay. An initial rapid screening was performed using human A549 epithelial cells (3×10^5 cells/well in Corning black wall, clear bottom 96-well plates) infected with HAdV5-GFP (2,000 vp/cell) in the presence of 50 μM of the candidate antiviral compounds. Virus was preincubated with the compounds (individual and mixed) for 45 minutes at 4° C., and then added to cells. A standard infection curve was generated in parallel by infecting cells in the absence of compounds using serial two-fold dilutions of virus. All reactions were done in triplicate. Cells, virus and compounds were incubated for 48 h at 37° C. and 5% CO2. Infection, as measured by HAdV-mediated GFP expression, was analyzed using a Typhoon 9410 imager (GE Healthcare Life Sciences), and quantified with ImageQuantTL (GE Healthcare Life Sciences).

[4] = test system: Acinetobacter baumannii strains resistant to colistine; assay: Screening of inhibition of bacterial growth at 50 μM; format: cell-based; settings: 5×10^5 CFU/ml, 18 h; for Screening, growth inhibition Ab 11: strain Ab 11, 50 μM; for Screening, growth inhibition Ab 17: strain Ab 17, 50 μM; for Screening, growth inhibition Ab 24: strain Ab 24, 50 μM; for Screening, growth inhibition Ab 21R: strain Ab 21R, 50 μM
Source text: (§3) All of the strains used were Acinetobacter baumannii strains resistant to colistine: Resistance (R)≥4 Sensibility (S)≤2—All of these strains have been disclosed in Valencia R, Arroyo L A, Conde M, Aldana J M, Torres M J, Fernandez-Cuenca F, et al. Nosocomial outbreak of infection with pan-drug-resistant Acinetobacter baumannii in a tertiary care university hospital. Infection control and hospital epidemiology. 2009; 30(3):257-63. The specific strains used were the following: 1, 10, 11, 14, 16, 17, 19, 20, 21R, 22P, 24, 99 and 113.
Evaluation of the inhibition of the bacterial growth of the 4 families of piperazines derivatives was performed by using a final concentration of 50 μM of each piperazine derivative in a concentration of 5×10^5 CFU/ml of each strain of A. baumannii in 96-well plates.
These plates were incubated for 18 hours at 37° C.

[5] = test system: Acinetobacter baumannii strains resistant to colistine; assay: Minimal inhibitory concentration (MIC), microdilution in MHBII; format: cell-based; settings: 5×10^5 CFU/ml, 18 h; for CMI (MIC) Ab 11: strain Ab 11, MHBII; for CMI (MIC) Ab 17: strain Ab 17, MHBII; for CMI (MIC) Ab 24: strain Ab 24, MHBII; for CMI (MIC) Ab 21R: strain Ab 21R, MHBII
Source text: as §3
Microdilution in cell medium Mueller Hinton Broth II (MHBII). This technique was carried out solely in those piperazines which presented inhibitory activity in the screening study.
We used decreasing concentrations of each piperazine derivative (from 50 μM -0.05 μM) in a concentration of 5×10^5 CFU/ml of each strain of A. baumannii in 96 well plates. These plates were incubated for 18 hours at a temperature 37° C.

[6] = A549 cells, 48 h, read-out: CC50

SMILES	Virus yield reduction HAdV5 (wild-type HAdV5) [fold]	IC50 (HAdV16-GFP) [µM]	Selectivity Index (SI) HAdV16 (HAdV16-GFP)	inhibition at 50 µM (HCMV (AD169)) [%]	Selectivity Index (SI) HAdV5 (HAdV5-GFP [1])	IC50 (HAdV5-GFP [1]; read-out: IC50 HAdV5) [µM]	inhibition at 10 µM (HAdV5-GFP [1]) [%]	CC50 (A549 cells; [6]) [µM]	CC50 at 48 h [2] [µM]	Virus yield reduction HAdV16 (wild-type HAdV16) [fold]	YIELD REDUCTION (wild-type HAdV5)	Inhibition assay in plaque (HAdV5-GFP [1])	CC50 (A549 cells) [µM]	Starting Inhibition assay (HAdV5-GFP [3])	Screening, growth inhibition Ab 11 [4] [µM]	Screening, growth inhibition Ab 17 [4] [µM]	Screening, growth inhibition Ab 24 [4] [µM]	CMI (MIC) Ab 11 [5] [µM]	CMI (MIC) Ab 17 [5] [µM]	CMI (MIC) Ab 24 [5] [µM]	further results
CC(C)(C)OC(=O)N1CCN(C(=O)Nc2ccc([N+](=O)[O-])cc2)C(c2ccccc2)C1 (centres unmarked) [Compound 46, 4-tert-Butoxycarbonyl-1-[(4-nitrophenyl)aminocarbonyl]-2-phenylpiperazine]	211.7 ± 44.1	4.8 ± 1.24	33.6	99.6 ± 0.39	47.3	3.4 ± 0.96	96 to 100	161 ± 45.2	161 ± 45.2	265.5 ± 29.1											
O=C(c1cc2ccccc2o1)N1CCN(C(=O)Nc2ccc([N+](=O)[O-])cc2)C(c2ccccc2)C1 (centres unmarked) [Compound 59, 4-(Benzofuran-2-carbonyl)-1-[(4-nitrophenyl)aminocarbonyl]-2-phenylpiperazine]	35.7 ± 13.5	3.5 ± 1.03	55.4	99.9 ± 0.06	93.5	2.1 ± 0.1	96 to 100		193.9 ± 1.68	34.6 ± 11.6											
O=C(c1cc2ccccc2o1)N1CCN(C(=O)Nc2ccc(Cl)cc2)C(c2ccccc2)C1 (centres unmarked) [Compound 60, 4-(Benzofuran-2-carbonyl)-1-[(4-chlorophenyl)aminocarbonyl]-2-phenylpiperazine]	9.9 ± 3.4	3.4 ± 0.93	56.9	98.2 ± 2.1	79	2.5 ± 1.17	96 to 100		194 ± 9.19	27.4 ± 16.9											
N#Cc1ccc(NC(=O)N2CCN(C(=O)c3cc4ccccc4o3)CC2c2ccccc2)cc1 (centres unmarked) [Compound 63, 4-(Benzofuran-2-carbonyl)-1-[(4-cyanophenyl)aminocarbonyl]-2-phenylpiperazine]	16.9 ± 5.2	3.9 ± 1.12	51.2	99.9 ± 0.05	42.7	4.7 ± 0.11	96 to 100	199.8 ± 0.26	199.8 ± 0.26	60.9 ± 12.5											
O=C(c1cc2ccccc2o1)N1CCN(C(=O)Nc2ccccc2[N+](=O)[O-])C(c2ccccc2)C1 (centres unmarked) [Compound 64, 4-(Benzofuran-2-carbonyl)-1-[(2-nitrophenyl)aminocarbonyl]-2-phenylpiperazine]	34.5 ± 12.6	2.3 ± 0.17	57.3	97.9 ± 0.9	53.3	2.5 ± 0.03	96 to 100	132 ± 6.01	132 ± 6.01	46.5 ± 10.8											
CC1CN(C(=O)OC(C)(C)C)CCN1C(=S)Nc1ccc(F)cc1 (centres unmarked) [Vip 585]											12.08 ± 2.78	92.91 ± 3.82	200	75.54 ± 13.76							
CC1CN(C(=O)Cc2ccccc2)CCN1C(=S)Nc1ccc([N+](=O)[O-])cc1 (centres unmarked) [Vip 628]											25.59 ± 10.45	98.21 ± 3.57	210	60.79 ± 17.31	<50	<50	<50	50	25	50	IC50 (HAdV5-GFP [1]; read-out: IC50 plaque): 2.04 µM
CC1CN(C(=O)Cc2ccccc2)CCN1C(=S)Nc1cc(C(F)(F)F)cc(C(F)(F)F)c1 (centres unmarked) [Vip 634]											33.42 ± 10.16	99.50 ± 1.58	130	94.46 ± 3.87	<50	<50	<50	6.25	3.12	6.25	Screening, growth inhibition Ab 14 ([4]; strain Ab 14, 50 μM): <50 µM; Screening, growth inhibition Ab 21R [4]: <50 µM; CMI (MIC) Ab 14 ([5]; strain Ab 14, MHBII): 3.12 µM; CMI (MIC) Ab 21R [5]: 3.12 µM
CC1CN(C(=O)Cc2ccccc2)CCN1C(=S)Nc1ccc(C#N)cc1 (centres unmarked) [Vip 635]											18.39 ± 5.44	98.36 ± 2.13	175	60.06 ± 17.39	<50	<50	<50	50	50	50	Screening, growth inhibition Ab 21R [4]: <50 µM; CMI (MIC) Ab 21R [5]: 50 µM
